Earlier results in patent US10278390B2, “Antimicrobial transparent plastic in the form of film or extruded shape” (priority 2016, dated 2019).

Tested on: bacteria

Compound: [Ag+] [silver ions]
- concentrations at which the metabolism of bacteria is adversely affected: 0.01 to 0.1 mg/L
